Read-outs that look alike come from different tables or passages of the source.
Experiment: Toxicokinetic evaluation of 14-day repeated intragastric administration to SD rats
Assay type: in vivo
Details: both sexes, SD, rat, plasma, po; for Vd/F at 7 day: Day 7, read-out: Apparent volume of distribution Vz/F; for CL/F at 7 day: Day 7, read-out: Clearance CL/F; for half-life at 7 day: Day 7, read-out: Half-life T1/2 (converted); for MRT at 7 day: Day 7, read-out: Residence time MRT; for Vd/F at 14 day: Day 14, read-out: Apparent volume of distribution Vz/F; for CL/F at 14 day: Day 14, read-out: Clearance CL/F; for half-life at 14 day: Day 14, read-out: Half-life T1/2 (converted); for Cmax at 14 day: Day 14, read-out: Plasma concentration Cmax; for MRT at 14 day: Day 14, read-out: Residence time MRT
Procedure: With SD rats as test animals, the plasma concentrations of the test compounds and the concentrations of the original forms of the compounds in the administration solutions were measured by LC/MS/MS at different time points after intragastric administration. The toxicokinetic performance of the compound disclosed herein was studied in SD rats and its toxicokinetic profile was evaluated.
24 SD rats, an equal number of males and females, evenly divided into 6 groups of 4, an equal number of males and females in each group, provided by Vital River Laboratory Animal Technology Co., Ltd.
A certain amount of the compound of Example 16 was measured out, and 15% PEG400 and 85% (10% TPGS+1% HPMC K100LV) were added to prepare a pale yellow homogenous suspension.
A certain amount of compound MYK-461 was measured out, and 0.5% MC was added to prepare a colorless clear solution.
The compound of Example 16 was intragastrically administered at doses of 5 mg/kg, 15 mg/kg and 30 mg/kg, at a volume of 10 mL/kg.
Compound MYK-461 was administered at doses of 0.5 mg/kg, 1.5 mg/kg and 3 mg/kg, at a volume of 10 mL/kg.
0.2-mL blood samples were collected from the orbit 0.5 h, 1.0 h, 2.0 h, 4.0 h, 8.0 h and 24.0 h after administration on day 1, and before administration and 0.5 h, 1.0 h, 2.0 h, 4.0 h, 8.0 hi, 24.0 h after administration on day 7 and day 14, placed into EDTA-K2 anticoagulation tubes, and centrifuged at 10,000 rpm for 1 min (4° C.), and plasma was isolated within 1 h and stored at −20° C. before analysis. The blood collection to centrifugation process was performed under ice bath conditions. Two hours after administration, feeding was resumed.
Determination of plasma concentrations in SD rats after intragastric administration of different concentrations of test compounds: 20 μL of SD rat plasma at each time point post-dose was mixed with 50 μL of an internal standard solution (internal standard for the compound of Example 16: 100 ng/mL verapamil; internal standard for compound MYK-461: 100 ng(mL camptothecin) and 200 μL of acetonitrile; the mixture was vortexed for 5 min and centrifuged at 3700 rpm for 10 min, and 1 μL of the supernatant was taken for LC/MS/MS analysis.

[1] = 0.5 mg/kg, repeated intragastric 0.5 mg/kg
[2] = 1.5 mg/kg, repeated intragastric 1.5 mg/kg
[3] = 3 mg/kg, repeated intragastric 3.0 mg/kg

SMILES: CC(C)n1c(=O)cc(N[C@@H](C)c2ccccc2)[nH]c1=O [MYK-461, reference compound]
- Vd/F (0.5 mg/kg, repeated intragastric 0.5 mg/kg, Day 1, read-out: Apparent volume of distribution Vz/F): 13.8 L/kg
- AUC (0.5 mg/kg, repeated intragastric 0.5 mg/kg, Day 1, read-out: Area under curve AUC): 491 ng·h/mL
- CL/F (0.5 mg/kg, repeated intragastric 0.5 mg/kg, Day 1, read-out: Clearance CL/F): 12.9 mL/min/kg
- half-life (0.5 mg/kg, repeated intragastric 0.5 mg/kg, Day 1, read-out: Half-life T1/2 (converted)): 13.3 h
- Cmax (0.5 mg/kg, repeated intragastric 0.5 mg/kg, Day 1, read-out: Plasma concentration Cmax): 40.2 ng/mL
- MRT (0.5 mg/kg, repeated intragastric 0.5 mg/kg, Day 1, read-out: Residence time MRT): 19 h
- Vd/F at 7 day [1]: 8.41 L/kg
- AUC (0.5 mg/kg, repeated intragastric 0.5 mg/kg, Day 7, read-out: Area under curve AUC): 888 ng·h/mL
- CL/F at 7 day [1]: 7.46 mL/min/kg
- half-life at 7 day [1]: 14.7 h
- Cmax (0.5 mg/kg, repeated intragastric 0.5 mg/kg, Day 7, read-out: Plasma concentration Cmax): 51.7 ng/mL
- MRT at 7 day [1]: 21.3 h
- Vd/F at 14 day [1]: 5.86 L/kg
- AUC (0.5 mg/kg, repeated intragastric 0.5 mg/kg, Day 14, read-out: Area under curve AUC): 1560 ng·h/mL
- CL/F at 14 day [1]: 3.06 mL/min/kg
- half-life at 14 day [1]: 32.9 h
- Cmax at 14 day [1]: 89.3 ng/mL
- MRT at 14 day [1]: 47.3 h
- Vd/F at 1 day (1.5 mg/kg, repeated intragastric 1.5 mg/kg, Day 1, read-out: Apparent volume of distribution Vz/F): 9.56 L/kg
- AUC (1.5 mg/kg, repeated intragastric 1.5 mg/kg, Day 1, read-out: Area under curve AUC): 2580 ng·h/mL
- CL/F at 1 day (1.5 mg/kg, repeated intragastric 1.5 mg/kg, Day 1, read-out: Clearance CL/F): 6.39 mL/min/kg
- half-life at 1 day (1.5 mg/kg, repeated intragastric 1.5 mg/kg, Day 1, read-out: Half-life T1/2 (converted)): 19.1 h
- Cmax at 1 day (1.5 mg/kg, repeated intragastric 1.5 mg/kg, Day 1, read-out: Plasma concentration Cmax): 140 ng/mL
- MRT at 1 day (1.5 mg/kg, repeated intragastric 1.5 mg/kg, Day 1, read-out: Residence time MRT): 28.2 h
- Vd/F at 7 day [2]: 4.8 L/kg
- AUC (1.5 mg/kg, repeated intragastric 1.5 mg/kg, Day 7, read-out: Area under curve AUC): 5180 ng·h/mL
- CL/F at 7 day [2]: 3.58 mL/min/kg
- half-life at 7 day [2]: 20.5 h
- Cmax at 7 day (1.5 mg/kg, repeated intragastric 1.5 mg/kg, Day 7, read-out: Plasma concentration Cmax): 269 ng/mL
- MRT at 7 day [2]: 30.2 h
- Vd/F at 14 day [2]: 5.03 L/kg
- AUC (1.5 mg/kg, repeated intragastric 1.5 mg/kg, Day 14, read-out: Area under curve AUC): 6320 ng·h/mL
- CL/F at 14 day [2]: 2.57 mL/min/kg
- half-life at 14 day [2]: 26.2 h
- Cmax at 14 day [2]: 333 ng/mL
- MRT at 14 day [2]: 38.5 h
- Vd/F at 1 day (3 mg/kg, repeated intragastric 3.0 mg/kg, Day 1, read-out: Apparent volume of distribution Vz/F): 8.93 L/kg
- AUC (3 mg/kg, repeated intragastric 3.0 mg/kg, Day 1, read-out: Area under curve AUC): 5210 ng·h/mL
- CL/F at 1 day (3 mg/kg, repeated intragastric 3.0 mg/kg, Day 1, read-out: Clearance CL/F): 4.91 mL/min/kg
- half-life at 1 day (3 mg/kg, repeated intragastric 3.0 mg/kg, Day 1, read-out: Half-life T1/2 (converted)): 28.5 h
- Cmax at 1 day (3 mg/kg, repeated intragastric 3.0 mg/kg, Day 1, read-out: Plasma concentration Cmax): 297 ng/mL
- MRT at 1 day (3 mg/kg, repeated intragastric 3.0 mg/kg, Day 1, read-out: Residence time MRT): 43.1 h
- Vd/F at 7 day [3]: 4.36 L/kg
- AUC (3 mg/kg, repeated intragastric 3.0 mg/kg, Day 7, read-out: Area under curve AUC): 12500 ng·h/mL
- CL/F at 7 day [3]: 1.97 mL/min/kg
- half-life at 7 day [3]: 190 h
- Cmax at 7 day (3 mg/kg, repeated intragastric 3.0 mg/kg, Day 7, read-out: Plasma concentration Cmax): 628 ng/mL
- MRT at 7 day [3]: 275 h
- Vd/F at 14 day [3]: 3.8 L/kg
- AUC (3 mg/kg, repeated intragastric 3.0 mg/kg, Day 14, read-out: Area under curve AUC): 16000 ng·h/mL
- CL/F at 14 day [3]: 1.3 mL/min/kg
- half-life at 14 day [3]: 46.5 h
- Cmax at 14 day [3]: 767 ng/mL
- MRT at 14 day [3]: 68.1 h
